From the NIST ThermoML archive (doi:10.1016/j.tca.2006.01.013)

Assay: xn = mol fraction of the nth substance listed
Conditions: 101 kPa, Liquid, Vibrating tube method

NCCN [ethane-1,2-diamine] + O
mass density [kg/m3]
Conditions	288.15 K	293.15 K	298.15 K	303.15 K
x2 = 0.0401	905.79	901.13	896.45	891.76
x2 = 0.0797	909.79	905.15	900.49	895.82
x2 = 0.1199	914.18	909.56	904.92	900.27
x2 = 0.1598	918.88	914.28	909.66	905.03
x2 = 0.2003	923.88	919.29	914.69	910.07
x2 = 0.25	930.08	925.52	920.93	916.33
x2 = 0.2999	936.78	932.23	927.67	923.08
x2 = 0.3497	944.11	939.57	935.02	930.44
x2 = 0.3998	951.74	947.2	942.65	938.08
x2 = 0.4504	959.71	955.18	950.64	946.07
x2 = 0.5001	967.93	963.41	958.87	–
x2 = 0.5499	976.43	971.92	967.39	–
x2 = 0.5998	984.56	980.1	975.61	–
x2 = 0.6499	991.92	987.54	983.14	–
x2 = 0.7004	998.03	993.83	989.6	–
x2 = 0.7499	1001.68	997.76	993.81	–
x2 = 0.8	1002.5	999	995.45	–
x2 = 0.84	1001.38	998.31	995.17	–
x2 = 0.88	999.21	996.66	994.01	–
x2 = 0.9193	997.06	995.08	992.96	–
x2 = 0.9599	996.39	995.01	993.42	–
